Data as given in patent US10273242B2, “Compound inhibiting activities of BTK and/or JAK3 kinases” (BEIJING HANMI PHARMACEUTICAL CO., LTD., priority 2013, dated 2019).

Experiments:
Lewis rats = test: Adjuvant-induced arthritis (AIA) model in rats; type: in vivo; conditions: 30 mg/kg and 100 mg/kg orally once a day for 7 days
Experimental: 100 mg of inactivated Mycobacterium tuberculosis (purchased from BD Difco, No.: 231141) accurately weighed and dissolved in 5 mL of incomplete Freund's adjuvant (IFA) (purchased from Sigma, No.: F5506), and then with 5 mL of physiological saline added, was homogeneously emulsified into 10 mg/mL of complete Freund's adjuvant (CFA). […] Rats were evaluated for the severity of arthritis using an established scoring system ranging from 0 to 4 as follows: 0=no evidence of erythema or swelling; 1=slight erythema or swelling of one of the toe joints; 2=erythema or swelling of more than one toe; 3=swelling of the ankle or wrist joint; 4=swelling of all toes including the ankle joint. All four paws of the rat were scored individually, and the highest score was 16.
The paw volumes of the rats were measured by the drainage method using a plethysmometer (Plethysmometer PV-200, Chengdu Taimeng Science and Technology Co., Ltd.) to determine the volumes below the ankle joints (in mL). The rats were measured for paw volumes every other day from day 10 after primary immunization, i.e. day 1 of the administration. […]

DBA/1J mice = test: Type II collagen-induced arthritis (CIA) model in DBA/1J mice; type: in vivo; conditions: 3 mg/kg and 10 mg/kg orally once a day for 14 days
From the text: The CIA model is a widely-used animal model in the study of drugs for the treatment of rheumatoid arthritis in human. The experimental animals used in this experiment are DBA/1J mice (male, 6 to 8 weeks of age, purchased from Shanghai Silaike Laboratroy Animal Co., Ltd., China). Mice were housed in an IVC system.
In order to induce the mice CIA model, a bovine type II collagen (CII) (purchased from Chondrex company, No.: 20022) solution was emulsified with the same volume of complete Freund's adjuvant (CFA) (purchased from Sigma-Aldrich, No.: F5881) using an electronic homogenizer to prepare an emulsion. Then, 70 μL of the prepared emulsion was intradermally injected into the base of the tail of the mice as a primary immunization. Three weeks after the primary immunization, one booster immunization was carried out. […] According to the following criteria, Mice were evaluated for the severity of arthritis using an established scoring system ranging from 0 to 4 (0 score: no evidence of edema or swelling; 1 score: mild edema and redness confined to the ankle joint or tarsal; 2 scores: mild edema and redness, from the ankle joint to the tarsal; 3 scores: moderate edema and redness, from the ankle joint to the metatarsal; and 4 scores: severe edema and redness, from the ankle to the whole instep and toes, or ankylosis of the ankle or wrist joints). […]

[1] = tested on: p-BTK (pY223) in Ramos cells; test: p-BTK inhibition assay in Ramos cells (Western blot); type: cell-based; conditions: compound 1 hour, anti-human IgM stimulation
Experimental: (§1) Ramos cells (purchased from the Beijing Union Medical College) with starvation culture for 1 hour were treated with the compounds of the present invention for 1 hour, and then rinsed with PBS buffer (pH 7.2) to remove the compounds. Then they were resuspended in 100 μL of serum-free culture medium containing 1 μM of anti-human IgM F(ab′)2 (purchased from SBA company, No.: 2022-01) and stimulated on ice for 10 minutes. The cells were rinsed with PBS buffer (pH 7.2) to remove IgM and resuspended in 100 μL of protein lysis buffer (purchased from Sigma, No.: C2978), and then prepared and quantified the protein sample. 100 μg of the protein sample were taken and loaded on polyacrylamide gels for electrophoresis under 200V of voltage. After electrophoresis, protein blots were transferred to a PVDF membrane. […] The protein expression was detected by coloration using ECL substrate (purchased from GE, No.: RPN2109).

[2] = tested on: p-PLCγ2 (pY1217) in Ramos cells; test: p-PLCγ2 inhibition assay in Ramos cells (Western blot); type: cell-based; conditions: compound 1 hour, anti-human IgM stimulation
Experimental: as §1

C=CC(=O)N1CC[C@@H](Nc2nc(Nc3cc(C)ns3)nc3ccsc23)C1 [Example 132, (R)-1-(3-((2-((3-methyl-isothiazol-5-yl)amino)thieno[3,2-d]pyrimidin-4-yl)amino)pyrrolidin-1-yl)prop-2-en-1-one]
therapeutic effect on arthritis (arthritis severity scores) (Lewis rats): good therapeutic effect on arthritis in the AIA model at the designed doses
therapeutic effect on arthritis (arthritis severity scores) (DBA/1J mice): good therapeutic effect on arthritis in the CIA model at the designed doses in a dose dependent manner
inhibition of expression of p-BTK [1]: significantly inhibit the expressions of p-BTK and p-PLCγ2 in Ramos cells in a dose-dependent manner
inhibition of expression of p-PLCγ2 [2]: significantly inhibit the expressions of p-BTK and p-PLCγ2 in Ramos cells in a dose-dependent manner
